Measured values from patent publication US9278914B2, “SARMs and method of use thereof” (UNIVERSITY OF TENNESSEE RESEARCH FOUNDATION, priority 2004, dated 2016).

Experiments:
[1] = system: castrated (ORX) male Sprague-Dawley rats; assay: Anabolic and androgenic activity in castrated (ORX) male rats, daily oral gavage for fourteen days; format: in vivo, rat; conditions: for Levator ani muscle weight, maximally stimulated: maximal stimulation, comparator; for Emax levator ani / Emax prostate / Emax seminal vesicles: nonlinear regression, sigmoid Emax model; for Anabolic muscle/prostate ratio: castrated rats
Protocol: Male Sprague-Dawley rats weighing approximately 200 g were purchased from Harlan Bioproducts for Science (Indianapolis, Ind.).
The test article for this study was weighed and dissolved in 10% DMSO (Fisher) diluted with PEG 300 (Acros Organics, N.J.) for preparation of the appropriate dosage concentrations. […] Animals were randomly assigned to one of seven groups consisting of 4 to 5 animals per group. Control groups (intact and ORX) were administered vehicle daily. […] Where appropriate, animals were castrated on day one of the study.
(§1) In addition, ventral prostate, seminal vesicles, and levator ani muscle were removed, individually weighed, normalized to body weight, and expressed as a percentage of intact control. Student's T-test was used to compare individual dose groups to the intact control group. Significance was defined a priori as a P-value<0.05. Ventral prostate and seminal vesicle weights were evaluated as a measure of androgenic activity, whereas levator ani muscle weight was evaluated as a measure of anabolic activity. Blood was collected from the abdominal aorta, centrifuged, and sera were frozen at −80° C. prior to determination of serum hormone levels. Serum luteinizing hormone (LH) and follicle stimulating hormone (FSH) concentrations were determined.
(§2) The test article for this study was weighed and dissolved in 10% DMSO (Fisher) diluted with PEG 300 (Acros Organics, N.J.) for preparation of the appropriate dosage concentrations. […] Animals were randomly assigned to one of seven groups consisting of 4 to 5 animals per group. Control groups (intact and ORX) were administered vehicle daily. Compound of formula S-XXIII was administered via oral gavage at doses of 0.01, 0.03, 0.1, 0.3, 0.75, and 1 mg/day to both intact and ORX groups. Where appropriate, animals were castrated on day one of the study. Treatment with compound of formula S-XXIII began nine days post ORX and was administered daily via oral gavage for fourteen days.
Male Sprague-Dawley rats weighing approximately 200 g were purchased from Harlan Bioproducts for Science (Indianapolis, Ind.). […] Regenerative effects of the compound of formula S-XXIV in chronically (9 days) ORX rats was similarly evaluated.
as §2, with “S-XXIV” for “S-XXIII”
Male Sprague-Dawley rats weighing approximately 200 g were purchased from Harlan Bioproducts for Science (Indianapolis, Ind.). […] Anabolic and androgenic activity of compound of formula S-XXV in intact animals was evaluated, and the dose response in acutely orchidectomized (ORX) animals was evaluated as well.
The compound was weighed and dissolved in 10% DMSO (Fisher) diluted with PEG 300 (Acros Organics, N.J.) for preparation of the appropriate dosage concentrations.

[2] = system: intact male Sprague-Dawley rats; assay: Anabolic and androgenic activity in intact male rats, daily oral gavage; format: in vivo, rat
Protocol: The test article for this study was weighed and dissolved in 10% DMSO (Fisher) diluted with PEG 300 (Acros Organics, N.J.) for preparation of the appropriate dosage concentrations. The animals were housed in groups of 2 to 3 animals per cage. Animals were randomly assigned to one of seven groups consisting of 4 to 5 animals per group. Control groups (intact and ORX) were administered vehicle daily. […] Where appropriate, animals were castrated on day one of the study. Treatment with compound of formula S-II began nine days post ORX and was administered daily via oral gavage for fourteen days.
as §1, with “The animals were sacrificed under anesthesia (ketamine/xyalzine, 87:13 mg/kg) and body weights were recorded. In” for “In”
(§3) The test article for this study was weighed and dissolved in 10% DMSO (Fisher) diluted with PEG 300 (Acros Organics, N.J.) for preparation of the appropriate dosage concentrations. The animals were housed in groups of 2 to 3 animals per cage. Animals were randomly assigned to one of seven groups consisting of 4 to 5 animals per group. Control groups (intact and ORX) were administered vehicle daily. Compound of formula S-XXIII was administered via oral gavage at doses of 0.01, 0.03, 0.1, 0.3, 0.75, and 1 mg/day to both intact and ORX groups. Where appropriate, animals were castrated on day one of the study. Treatment with compound of formula S-XXIII began nine days post ORX and was administered daily via oral gavage for fourteen days.
as §3, with “S-XXIV” for “S-XXIII”, “study.” for “study. Treatment with compound of formula S-XXIII began nine days post ORX and was administered daily via oral gavage for fourteen days.”

SMILES: CC(=O)Nc1ccc(OC[C@](C)(O)C(=O)Nc2ccc([N+](=O)[O-])c(C(F)(F)F)c2)cc1 [S-4, S-3-(4-acetylaminophenoxy)-2-hydroxy-2-methyl-N-(4-nitro-3-trifluoromethylphenyl) propionamide, reference compound]
- Levator ani muscle weight, maximally stimulated [1]: 101%

SMILES: C[C@](O)(COc1ccc(C#N)c(F)c1)C(=O)Nc1ccc(C#N)c(C(F)(F)F)c1 [S-XXIII]
- Dose able to fully restore/maintain levator ani muscle weight ([1]; ORX rats): 0.03 mg/day
- ED50 levator ani ([1]; ORX rats): 0.03 ± 0.01 mg/day
- ED50 prostate ([1]; ORX rats): 0.21 ± 0.04 mg/day
- ED50 seminal vesicles ([1]; ORX rats): 0.2 ± 0.04 mg/day
- Levator ani muscle weight ([1]; ORX rats, 0.01 mg/day oral): 71%±4%
- Prostate weight ([1]; ORX rats, 0.01 mg/day oral): 24%±4%
- Seminal vesicle weight ([1]; ORX rats, 0.01 mg/day oral): 15%±2%
- Levator ani muscle weight ([1]; ORX rats, 0.03 mg/day oral): 101%±15%
- Prostate weight ([1]; ORX rats, 0.03 mg/day oral): 37%±9%
- Seminal vesicle weight ([1]; ORX rats, 0.03 mg/day oral): 25%±9%
- Levator ani muscle weight ([1]; ORX rats, 0.1 mg/day oral): 125%±20%
- Prostate weight ([1]; ORX rats, 0.1 mg/day oral): 50%±11%
- Seminal vesicle weight ([1]; ORX rats, 0.1 mg/day oral): 67%±20%
- Levator ani muscle weight ([1]; ORX rats, 0.3 mg/day oral): 126%±14%
- Prostate weight ([1]; ORX rats, 0.3 mg/day oral): 88%±16%
- Seminal vesicle weight ([1]; ORX rats, 0.3 mg/day oral): 113%±6%
- Levator ani muscle weight ([1]; ORX rats, 0.75 mg/day oral): 151±9 % of intact controls
- Prostate weight ([1]; ORX rats, 0.75 mg/day oral): 132%±16%
- Seminal vesicle weight ([1]; ORX rats, 0.75 mg/day oral): 155%±16%
- Levator ani muscle weight ([1]; ORX rats, 1 mg/day oral): 143±17 % of intact controls
- Prostate weight ([1]; ORX rats, 1 mg/day oral): 118±12 % of intact controls
- Seminal vesicle weight ([1]; ORX rats, 1 mg/day oral): 160%±7%
- Emax levator ani ([1]; ORX rats): 147%±10%
- Emax prostate ([1]; ORX rats): 147%±10%
- Emax seminal vesicles ([1]; ORX rats): 188%±135%
- Levator ani muscle weight ([2]; 0.01 mg/day oral): 116%±7%
- Prostate weight ([2]; 0.01 mg/day oral): 98%±21%
- Seminal vesicle weight ([2]; 0.01 mg/day oral): 115%±12%
- Levator ani muscle weight ([2]; 0.03 mg/day oral): 134%±8%
- Prostate weight ([2]; 0.03 mg/day oral): 99%±8%
- Seminal vesicle weight ([2]; 0.03 mg/day oral): 109%±17%
- Levator ani muscle weight ([2]; 0.1 mg/day oral): 134%±21%
- Prostate weight ([2]; 0.1 mg/day oral): 85%±18%
- Seminal vesicle weight ([2]; 0.1 mg/day oral): 106%±13%
- Levator ani muscle weight ([2]; 0.3 mg/day oral): 134%±11%
- Prostate weight ([2]; 0.3 mg/day oral): 98%±22%
- Seminal vesicle weight ([2]; 0.3 mg/day oral): 121%±11%
- Levator ani muscle weight ([2]; 0.75 mg/day oral): 142%±10%
- Prostate weight ([2]; 0.75 mg/day oral): 126%±17%
- Seminal vesicle weight ([2]; 0.75 mg/day oral): 157%±5%
- Levator ani muscle weight ([2]; 1 mg/day oral): 147%±10%
- Prostate weight ([2]; 1 mg/day oral): 126%±17%
- Seminal vesicle weight ([2]; 1 mg/day oral): 136%±3%

SMILES: C[C@](O)(COc1ccc(C#N)cc1)C(=O)Nc1ccc(C#N)c(Cl)c1 [S-XXIV, (S)—N-(3-chloro-4-cyanophenyl)-3-(4-cyanophenoxy)-2-hydroxy-2-methylpropanamide]
- Dose restoring 100% of levator ani muscle weight ([1]; ORX rats): 0.1 mg/day
- Prostate weight restored at the dose restoring 100% levator ani ([1]; ORX rats): 43±15%
- Levator ani muscle weight ([1]; ORX rats, 0.01 mg/day oral): 52%±8%
- Prostate weight ([1]; ORX rats, 0.01 mg/day oral): 17%±6%
- Seminal vesicle weight ([1]; ORX rats, 0.01 mg/day oral): 10%±3%
- Levator ani muscle weight ([1]; ORX rats, 0.03 mg/day oral): 67%±9%
- Prostate weight ([1]; ORX rats, 0.03 mg/day oral): 31%±3%
- Seminal vesicle weight ([1]; ORX rats, 0.03 mg/day oral): 13%±4%
- Levator ani muscle weight ([1]; ORX rats, 0.1 mg/day oral): 98%±10%
- Prostate weight ([1]; ORX rats, 0.1 mg/day oral): 43%±15%
- Seminal vesicle weight ([1]; ORX rats, 0.1 mg/day oral): 21%±6%
- Levator ani muscle weight ([1]; ORX rats, 0.3 mg/day oral): 103%±12%
- Prostate weight ([1]; ORX rats, 0.3 mg/day oral): 54%±17%
- Seminal vesicle weight ([1]; ORX rats, 0.3 mg/day oral): 43%±8%
- Levator ani muscle weight ([1]; ORX rats, 0.75 mg/day oral): 105%±12%
- Prostate weight ([1]; ORX rats, 0.75 mg/day oral): 58%±10%
- Seminal vesicle weight ([1]; ORX rats, 0.75 mg/day oral): 51%±9%
- Seminal vesicle weight ([1]; ORX rats, 1 mg/day oral): 69%±14%
- Anabolic muscle/prostate ratio ([1]; 0.01 mg/day): 3.02
- Anabolic muscle/prostate ratio ([1]; 0.03 mg/day): 2.13
- Anabolic muscle/prostate ratio ([1]; 0.1 mg/day): 2.27
- Anabolic muscle/prostate ratio ([1]; 0.3 mg/day): 1.90
- Anabolic muscle/prostate ratio ([1]; 0.75 mg/day): 1.83
- Anabolic muscle/prostate ratio ([1]; 1 mg/day): 1.51
- Levator ani muscle weight ([2]; 0.01 mg/day oral): 107%±5%
- Prostate weight ([2]; 0.01 mg/day oral): 103%±10%
- Levator ani muscle weight ([2]; 0.03 mg/day oral): 103%±7%
- Prostate weight ([2]; 0.03 mg/day oral): 99%±10%
- Levator ani muscle weight ([2]; 0.1 mg/day oral): 97%±7%
- Prostate weight ([2]; 0.1 mg/day oral): 58%±10%
- Levator ani muscle weight ([2]; 0.3 mg/day oral): 103%±5%
- Prostate weight ([2]; 0.3 mg/day oral): 58%±15%
- Levator ani muscle weight ([2]; 0.75 mg/day oral): 118%±7%
- Prostate weight ([2]; 0.75 mg/day oral): 65%±20%
- Levator ani muscle weight ([2]; 1 mg/day oral): 118%±7%
- Prostate weight ([2]; 1 mg/day oral): 77%±23%

SMILES: C[C@](O)(COc1ccc(C#N)cc1)C(=O)Nc1ccc(C#N)c(C(F)(F)F)c1 [S-XXV]
- Dose able to fully restore/maintain levator ani muscle weight ([1]; ORX rats): > 0.1 mg/day
- ED50 levator ani ([1]; ORX rats): 0.02 ± 0.01 mg/day
- ED50 prostate ([1]; ORX rats): 0.09 ± 0.07 mg/day
- ED50 seminal vesicles ([1]; ORX rats): 0.17 ± 0.05 mg/day
- Levator ani muscle weight ([1]; ORX rats, 0.01 mg/day oral): 59%±6%
- Prostate weight ([1]; ORX rats, 0.01 mg/day oral): 8%±2%
- Seminal vesicle weight ([1]; ORX rats, 0.01 mg/day oral): 12%±4%
- Levator ani muscle weight ([1]; ORX rats, 0.03 mg/day oral): 85%±9%
- Prostate weight ([1]; ORX rats, 0.03 mg/day oral): 20%±5%
- Seminal vesicle weight ([1]; ORX rats, 0.03 mg/day oral): 17%±5%
- Levator ani muscle weight ([1]; ORX rats, 0.1 mg/day oral): 112%±10%
- Prostate weight ([1]; ORX rats, 0.1 mg/day oral): 51%±19%
- Seminal vesicle weight ([1]; ORX rats, 0.1 mg/day oral): 35%±10%
- Levator ani muscle weight ([1]; ORX rats, 0.3 mg/day oral): 122%±16%
- Prostate weight ([1]; ORX rats, 0.3 mg/day oral): 56%±9%
- Seminal vesicle weight ([1]; ORX rats, 0.3 mg/day oral): 61%±15%
- Levator ani muscle weight ([1]; ORX rats, 0.75 mg/day oral): 127±12 % of intact controls
- Prostate weight ([1]; ORX rats, 0.75 mg/day oral): 80%±28%
- Seminal vesicle weight ([1]; ORX rats, 0.75 mg/day oral): 70%±14%
- Levator ani muscle weight ([1]; ORX rats, 1 mg/day oral): 129.66±2 % of intact controls
- Prostate weight ([1]; ORX rats, 1 mg/day oral): 74±12.5 % of intact controls
- Seminal vesicle weight ([1]; ORX rats, 1 mg/day oral): 80%±6%
- Emax levator ani ([1]; ORX rats): 131%±2%
- Emax prostate ([1]; ORX rats): 83%±25%
- Emax seminal vesicles ([1]; ORX rats): 85%±11%
- Levator ani muscle weight ([2]; 0.01 mg/day oral): 120%±12%
- Prostate weight ([2]; 0.01 mg/day oral): 111%±21%
- Seminal vesicle weight ([2]; 0.01 mg/day oral): 94%±9%
- Levator ani muscle weight ([2]; 0.03 mg/day oral): 116%±7%
- Prostate weight ([2]; 0.03 mg/day oral): 88%±15%
- Seminal vesicle weight ([2]; 0.03 mg/day oral): 77%±11%
- Levator ani muscle weight ([2]; 0.1 mg/day oral): 128%±7%
- Prostate weight ([2]; 0.1 mg/day oral): 77%±17%
- Seminal vesicle weight ([2]; 0.1 mg/day oral): 80%±9%
- Levator ani muscle weight ([2]; 0.3 mg/day oral): 134%±7%
- Prostate weight ([2]; 0.3 mg/day oral): 71%±16%
- Seminal vesicle weight ([2]; 0.3 mg/day oral): 73%±12%
- Levator ani muscle weight ([2]; 0.75 mg/day oral): 125%±9%
- Prostate weight ([2]; 0.75 mg/day oral): 71%±10%
- Seminal vesicle weight ([2]; 0.75 mg/day oral): 77%±10%
- Levator ani muscle weight ([2]; 1 mg/day oral): 146%±17%
- Prostate weight ([2]; 1 mg/day oral): 87%±13%
- Seminal vesicle weight ([2]; 1 mg/day oral): 88%±14%

SMILES: CCC(=O)O[C@H]1CC[C@H]2[C@@H]3CCC4=CC(=O)CC[C@]4(C)[C@H]3CC[C@]12C [Testosterone propionate, reference compound]
- Levator ani muscle weight, maximally stimulated [1]: 104%
